Laboratory results: patent US20130071328A1, “Propynoic Acid Carbamoyl Methyl-Amides and Pharmaceutical Compositions and Methods Based Thereon” (UNIVERSITY OF SOUTHERN CALIFORNIA, priority 2011, published 2013)

Legend:
[1] = test system: MDA-MB-435 breast cancer cell line; test: MTT cytotoxicity assay, MDA-MB-435; assay type: cell-based, human; settings: Homo sapiens, MDA-MB-435, 72 h, 72 h exposure
Source text: (§1) The human breast cancer cell line MDA-MB-435 and the colon cancer cell line HT29 were purchased from the American Type Cell Culture (Manassas, Va.). Colon cancer cell lines HCT116 p53^+/+ and HCT116 p53^−/− were kindly provided by Dr. Bert Vogelstein (Johns Hopkins Medical Institutions, Baltimore, Md.). The human ovarian carcinoma cell line (HEY), naturally resistant to cisplatin (CDDP), was kindly provided by Dr. Louis Dubeau (USC Norris Cancer Center). The bladder cancer cell lines were kindly provided by Dr. Richard Cote (USC Keck School of Medicine). Cells were maintained as monolayer cultures in the appropriate media: RPMI-1640 (HT29, HCT116 p53^+/+, HCT116 p53^−/−, and HEY cell lines) or DMEM (MDA-MB-435 and UMUC3 cell lines) supplemented with 10% fetal bovine serum (FBS) (HyClone, Road Logan, Utah) at 37° C. in a humidified atmosphere of 5% CO2. To remove the adherent cells from the flask for subculture and counting, cells were washed with PBS without calcium or magnesium, incubated with a small volume of 1×trypsin-EDTA solution (Sigma-Aldrich, St. Louis, Mo.) for 5 min, resuspended with fresh culture medium, and centrifuged at 1200 rpm for 5 min. All experiments were performed using cells in exponential growth phase. Cells were routinely checked for Mycoplasma contamination using PlasmaTest kit (InvivoGen, San Diego, Calif.).
(§2) Cytotoxicity was assessed by MTT assay as described previously. 43 In brief, cells were seeded in 96-well microtiter plates and allowed to attach overnight. Cells were subsequently treated with continuous exposure to corresponding drugs for 72 h. At the end of treatments, an MTT solution (at a final concentration of 0.5 mg/mL) was added to each well, and cells were incubated for 4 h at 37° C. After removal of the supernatant, DMSO was added, and the absorbance was read at 570 nm. All assays were done in triplicate. The IC50 was then determined for each drug from a plot of log(drug concentration) versus percentage of cells killed.

[2] = test system: HCT116 p53^+/+ colon cancer cell line; test: MTT cytotoxicity assay, HCT116 p53+/+; assay type: cell-based; settings: Homo sapiens, HCT-116, 72 h exposure
Source text: as §1, §2

[3] = test system: doxorubicin-resistant NCI/ADR-RES ovarian cancer cell line; test: Cytotoxicity assay, NCI/ADR-RES; assay type: cell-based; settings: Homo sapiens
Protocol: as §2

[4] = test system: HEY ovarian cancer cell line; test: Cytotoxicity assay, HEY; assay type: cell-based; settings: Homo sapiens
Source text: as §1, §2

[5] = test system: HT29 colon cancer cell line; test: MTT cytotoxicity assay, HT29; assay type: cell-based; settings: Homo sapiens, HT-29, 72 h exposure
Source text: as §1, §2

[6] = test system: UMUC3 bladder cancer cell line; test: MTT cytotoxicity assay, UMUC3; assay type: cell-based; settings: Homo sapiens, 72 h exposure
Source text: as §1, §2

[7] = test system: 5637 bladder cancer cell line; test: MTT cytotoxicity assay, 5637; assay type: cell-based, human; settings: Homo sapiens, 72 h exposure
Source text: as §1, §2

[8] = test system: HCT116 p53^−/− colon cancer cell line; test: MTT cytotoxicity assay, HCT116 p53-/-; assay type: cell-based; settings: Homo sapiens, HCT-116, 72 h exposure
Source text: as §1, §2

[9] = test system: OVCAR8 ovarian cancer cell line; test: In vitro cytotoxicity, OVCAR8; assay type: cell-based; settings: Homo sapiens, OVCAR-8; Table 4, ovarian cancer panel
Protocol: as §2

| SMILES | IC50 [1] [µM] | IC50 [2] [µM] | IC50 ([3]; MTT, 72 h exposure (Table 2)) [µM] | IC50 ([4]; MTT, 72 h exposure (Table 2)) [µM] | IC50 [5] [µM] | IC50 [6] [µM] | IC50 [7] [µM] | IC50 [8] [µM] | IC50 ([3]; Table 4, ovarian cancer panel) [µM] | IC50 [9] [µM] | IC50 ([4]; Table 4, ovarian cancer panel) [µM] |
| --- | --- | --- | --- | --- | --- | --- | --- | --- | --- | --- | --- |
| C#CC(=O)N(c1ccc(OC)c(OC)c1)C(C(=O)NC1CCCC1)c1cccs1 (centres unmarked) [Compound 3, N-[2-(Cyclopentylamino)-2-oxo-1-thien-2-ylethyl]-N-(3,4-dimethoxyphenyl)Propynamide] | 2 ± 0.1 | 7.7 ± 1.9 | 0.9 ± 0.8 | 3.4 ± 1.5 | 5.5 ± 4.2 | > 20 | 2 ± 0.7 | 9.6 ± 4.9 | – | – | – |
| C#CC(=O)N(c1ccc(OC)cc1OC)C(C(=O)NC1CCCC1)c1cccs1 (centres unmarked) [Compound 5, N-[2-(Cyclopentylamino)-2-oxo-1-thien-2-ylethyl]-N-(2,4-dimethoxyphenyl)Propynamide] | 1.7 ± 0.5 | 6.9 ± 0.6 | 0.4 | 4.1 ± 3.4 | 2.3 ± 0.3 | > 20 | 1.7 ± 0.8 | 7 ± 0.7 | – | – | – |
| C#CC(=O)N(c1cccc(OC)c1)C(C(=O)NC1CCCC1)c1cccs1 (centres unmarked) [Compound 6, N-[2-(Cyclopentylamino)-2-oxo-1-thien-2-ylethyl]-N-(3-methoxyphenyl)Propynamide] | – | 7.2 ± 0.2 | 0.3 | 1.9 ± 0.7 | 2.3 ± 0.3 | 6.9 ± 1.2 | 0.3 | 5.6 ± 0.8 | – | – | – |
| C#CC(=O)N(c1cc(OC)ccc1OC)C(C(=O)NC1CCCC1)c1cccs1 (centres unmarked) [Compound 7, N-[2-(Cyclopentylamino)-2-oxo-1-thien-2-ylethyl]-N-(2,5-dimethoxyphenyl)Propynamide] | 0.5 ± 0.3 | 5.7 ± 0.6 | 0.3 | 1.5 ± 1.1 | 1.6 ± 1 | 5.7 ± 1.5 | 0.3 | 4.7 ± 2.3 | – | – | – |
| C#CC(=O)N(c1ccc2c(c1)OCCO2)C(C(=O)NC1CCCC1)c1ccccc1 (centres unmarked) [Compound 8, N-[2-(Cyclopentylamino)-2-oxo-1-phenylethyl]-N-(2,3-dihydro-1,4-benzodioxin-6-yl)Propynamide] | 1.8 ± 0.6 | 17.3 ± 1.1 | 0.3 | 4.1 ± 3.4 | 3.2 ± 1.2 | > 20 | 1.9 ± 0.6 | > 20 | – | – | – |
| C#CC(=O)N(Cc1ccco1)C(C(=O)NC1CCCC1)c1ccccc1F (centres unmarked) [Compound 10, N-[2-(Cyclopentylamino)-1-(2-fluorophenyl)-2-oxoethyl]-N-(2-furylmethyl)Propynamide] | 1.7 ± 0.6 | 10.5 | 1.2 ± 0.4 | 4.3 ± 3.9 | > 10 | > 20 | 2.9 ± 0.8 | 13 ± 2.8 | – | – | – |
| C#CC(=O)N(c1cc(OC)cc(OC)c1)C(C(=O)NC1CCCC1)c1ccc(OC)cc1 (centres unmarked) [Compound 11, N-[2-(Cyclopentylamino)-1-(4-methoxyphenyl)-2-oxoethyl]-N-(3,5-dimethoxyphenyl)Propynamide] | 2.4 ± 0.1 | 15 | 0.3 | 2.3 ± 0.4 | 2.1 ± 0.4 | > 20 | 1.9 ± 0.6 | > 20 | – | – | – |
| C#CC(=O)N(c1cccc(C(F)(F)F)c1)C(C(=O)NC1CCCC1)c1ccc(F)cc1 (centres unmarked) [Compound 12, N-[2-(Cyclopentylamino)-1-(4-fluorophenyl)-2-oxoethyl]-N-[3-(trifluoromethyl)phenyl]Propynamide] | 5.2 ± 1.2 | 7.5 ± 0.7 | 0.4 | 2.4 ± 0.2 | 4.8 ± 3.2 | 8 ± 1.4 | 0.5 ± 0.3 | 6.9 ± 0.6 | – | – | – |
| C#CC(=O)N(c1cccc(C(F)(F)F)c1)C(C(=O)NC1CCCCC1)c1cccs1 (centres unmarked) [Compound 13, N-[2-(Cyclohexylamino)-2-oxo-1-thien-2-ylethyl]-N-[3-(trifluoromethyl)phenyl]Propynamide] | 6.9 ± 0.8 | 8.3 ± 1.1 | 0.4 | 5.2 ± 3.6 | 6 ± 1.4 | > 20 | 1.6 ± 0.7 | 10.4 ± 0.2 | – | – | – |
| C#CC(=O)N(c1ccc2ccccc2c1)C(C(=O)NC1CCCC1)c1ccccc1 (centres unmarked) [Compound 14, N-[2-(Cyclopentylamino)-2-oxo-1-phenylethyl]-N-(2-naphthyl)Propynamide] | 7.3 | 6.8 ± 1.8 | 0.3 | 1.7 ± 1.1 | 4.9 ± 3.4 | > 20 | 0.5 ± 0.3 | 7.4 ± 0.8 | – | – | – |
| C#CC(=O)N(Cc1ccc2c(c1)OCO2)C(C(=O)NCc1ccccc1)c1ccccc1F (centres unmarked) [Compound 15, N-(1,3-Benzodioxol-5-ylmethyl)-N-[2-(benzylamino)-1-(2-fluorophenyl)-2-oxoethyl]Propynamide] | > 10 | > 10 | 1.3 ± 1 | > 10 | > 10 | > 20 | 2.8 ± 1.1 | > 20 | – | – | – |
| C#CC(=O)N(c1cccc(C(F)(F)F)c1)C(C(=O)NCc1ccccc1)c1cccs1 (centres unmarked) [Compound 16, N-[2-(Benzylamino)-2-oxo-1-thien-2-ylethyl]-N-[3-(trifluoromethyl)-phenyl]Propynamide] | 4.2 ± 3 | 9 ± 1.4 | 0.7 ± 0.6 | 7.1 ± 2.6 | 7.3 ± 0.3 | > 20 | 1.2 ± 1.1 | 16.1 ± 5.6 | – | – | – |
| C#CC(=O)N(Cc1ccccc1Cl)C(C(=O)NC1CCCC1)c1ccccc1 (centres unmarked) [Compound 17, N-(2-Chlorobenzyl)-N-[2-(cyclopentylamino)-2-oxo-1-phenylethyl]Propynamide] | 8.2 ± 0.2 | 7.7 ± 0.5 | 2.2 ± 0.2 | 5.8 ± 1.3 | 5.4 ± 3 | > 20 | 1.8 ± 0.1 | 7.3 ± 1.4 | – | – | – |
| C#CC(=O)N(c1ccc(-n2cnnn2)c(C)c1)C(C(=O)NCC(=O)OCC)c1ccccc1F (centres unmarked) [Compound 20] | – | – | – | – | – | – | – | – | 1.3 | 0.2 | – |
| C#CC(=O)N(CC(N)=O)c1ccc(OC)cc1OC [Compound 29] | – | – | – | – | – | – | – | – | – | 0.5 ± 0.3 | – |
| C#CC(=O)N(c1ccc(O)cc1OC)C(C(=O)NCC(=O)OCC)c1cccs1 (centres unmarked) [Compound 40] | – | – | – | – | – | – | – | – | 12.8 ± 3.8 | 10.4 ± 1.6 | – |
| C#CC(=O)N(c1ccc(OC)cc1OC)C(C(=O)NCC(=O)OCC)c1ccccc1 (centres unmarked) [Compound 41] | – | – | – | – | – | – | – | – | – | 0.4 ± 0.2 | – |
| C#CC(=O)N(Cc1ccc(OC)cc1OC)C(C(=O)NCC(=O)OCC)c1ccccc1 (centres unmarked) [Compound 42] | – | – | – | – | – | – | – | – | – | 3.4 ± 0.4 | – |
| C#CC(=O)N(c1ccc(OC)cc1OC)C(C(=O)NCC(=O)NCCN1CCOCC1)c1cccs1 (centres unmarked) [Compound 45] | – | – | – | – | – | – | – | – | > 10 | 5 | 0.32 |
